Laboratory results taken from patent US20260250318A1, “COMPOSITIONS AND METHODS FOR CROSSING THE BLOOD BRAIN BARRIER” (VOYAGER THERAPEUTICS, INC., priority 2022, published 2026).

Columns and labels:
brain = assay: Matured TTM-001 and TTM-002 variants, NGS enrichment in mouse brain; type: in vivo, mice; conditions: relative to AAV9 control
[1] = test system: brains, heart, liver, muscle, and DRG of the NHPs; assay: Maturation of TTM-001 and TTM-002 capsids, NGS enrichment in NHP tissues; type: in vivo; conditions: relative to AAV9 control
Outline: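 Variants carry mutations within and flanking the loop IV peptide insert: positions 450–466 were triplet-randomized, while positions 449–466 received low-frequency point mutations. The combined pool went into two NHPs, and each peptide was scored by NGS enrichment ratio against AAV9.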

[2] = NGS fold-enrichment, mouse brain
[3] = NGS fold-enrichment of RNA, NHP brain
[4] = NGS fold-enrichment, NHP liver DNA
[5] = NGS fold-enrichment, NHP liver RNA
[6] = NGS fold-enrichment, NHP muscle
[7] = NGS fold-enrichment, brain of mice
[8] = NGS fold-enrichment, DRG of NHPs
[9] = NGS fold-enrichment, RNA, brain of NHPs
[10] = NGS fold-enrichment, heart of NHPs
[11] = NGS fold-enrichment, liver DNA of NHPs
[12] = NGS fold-enrichment, liver RNA of NHPs
[13] = NGS fold-enrichment, muscle of NHPs
[14] = NGS fold-enrichment of matured AAV capsid variants, NHP brain, RNA

Sequence	Fold Enrichment relative to AAV9, Brain (Mouse) (brain; [2]) [fold]	Fold Enrichment relative to AAV9, Brain (NHP) [1, 3] [fold]	Fold Enrichment relative to AAV9, DRG (NHP) ([1]; NGS fold-enrichment, NHP DRG) [fold]	Fold Enrichment relative to AAV9, Heart (NHP) ([1]; NGS fold-enrichment, NHP heart) [fold]	Fold Enrichment relative to AAV9, Liver DNA (NHP) [1, 4] [fold]	Fold Enrichment relative to AAV9, Liver RNA (NHP) [1, 5] [fold]	Fold Enrichment relative to AAV9, Muscle (NHP) [1, 6] [fold]	further results
KTINGHESPHKSGQNIQP	14.042	253.840	0.000	0.000	0.000	0.000	0.000	–
KTINGHESPHKSGQNQHS	9.720	92.248	0.000	0.032	0.088	0.090	0.012	–
KTINGHESPHKSGQTQQI	3.989	86.089	0.000	0.222	0.024	0.000	0.000	–
KTINGHESPHKSGRSQQT	9.378	97.106	0.000	3.329	0.181	0.000	0.022	–
KTINGHGSPHSKAQNPQT	11.001	83.478	0.000	0.288	0.260	0.000	0.219	–
KTINGIGSPHSKAQNLGT	–	–	–	–	–	–	–	Fold Enrichment relative to AAV9, Brain (Mouse) (brain; [7]): 104.769 fold; Fold Enrichment relative to AAV9, DRG (NHP) [1, 8]: 0.000 fold; Fold Enrichment relative to AAV9, Brain (NHP) [1, 9]: 70.543 fold; Fold Enrichment relative to AAV9, Heart (NHP) [1, 10]: 0.071 fold; Fold Enrichment relative to AAV9, Liver DNA (NHP) [1, 11]: 0.135 fold; Fold Enrichment relative to AAV9, Liver RNA (NHP) [1, 12]: 0.000 fold; Fold Enrichment relative to AAV9, Muscle (NHP) [1, 13]: 0.000 fold
KTINGLGSPHSKSQNQQT	–	–	–	–	–	–	–	Fold Enrichment relative to AAV9, Brain (Mouse) (brain; [7]): 64.139 fold; Fold Enrichment relative to AAV9, DRG (NHP) [1, 8]: 0.000 fold; Fold Enrichment relative to AAV9, Brain (NHP) [1, 9]: 62.170 fold; Fold Enrichment relative to AAV9, Heart (NHP) [1, 10]: 0.157 fold; Fold Enrichment relative to AAV9, Liver DNA (NHP) [1, 11]: 0.107 fold; Fold Enrichment relative to AAV9, Liver RNA (NHP) [1, 12]: 0.146 fold; Fold Enrichment relative to AAV9, Muscle (NHP) [1, 13]: 0.000 fold
KTINGNDSPHKSVQNHQT	7.920	120.002	0.000	0.099	0.000	0.000	0.788	–
KTINGNGSPHSKAQNHQA	36.754	88.274	0.000	0.024	0.041	0.000	0.000	–
KTINGNGSPHSKAQNPLT	53.583	75.269	0.000	0.000	0.000	0.366	0.000	Fold Enrichment relative to AAV9, Brain (Mouse) (brain; [7]): 53.583 fold; Fold Enrichment relative to AAV9, DRG (NHP) [1, 8]: 0.000 fold; Fold Enrichment relative to AAV9, Brain (NHP) [1, 9]: 75.269 fold; Fold Enrichment relative to AAV9, Heart (NHP) [1, 10]: 0.000 fold; Fold Enrichment relative to AAV9, Liver DNA (NHP) [1, 11]: 0.000 fold; Fold Enrichment relative to AAV9, Liver RNA (NHP) [1, 12]: 0.366 fold; Fold Enrichment relative to AAV9, Muscle (NHP) [1, 13]: 0.000 fold
KTINGNGSPHSKSQNQHT	–	–	–	–	–	–	–	Fold Enrichment relative to AAV9, Brain (Mouse) (brain; mouse brain): 56.614 fold; Fold Enrichment relative to AAV9, Brain (NHP) [1, 14]: 51.379 fold; Fold Enrichment relative to AAV9, DRG (NHP) ([1]; NHP DRG): 0.000 fold; Fold Enrichment relative to AAV9, Heart (NHP) ([1]; NHP heart): 0.054 fold; Fold Enrichment relative to AAV9, Liver DNA (NHP) ([1]; NHP liver, DNA): 0.082 fold; Fold Enrichment relative to AAV9, Liver RNA (NHP) ([1]; NHP liver, RNA): 0.000 fold; Fold Enrichment relative to AAV9, Muscle (NHP) ([1]; NHP muscle): 0.000 fold
KTINGPDSPHKIGQNQQS	10.055	85.726	0.000	0.055	0.063	0.000	0.171	–
KTINGPGSPHSKAHNQQT	52.508	115.742	0.146	0.000	0.513	0.000	0.235	Fold Enrichment relative to AAV9, Brain (Mouse) (brain; [7]): 52.508 fold; Fold Enrichment relative to AAV9, DRG (NHP) [1, 8]: 0.146 fold; Fold Enrichment relative to AAV9, Brain (NHP) [1, 9]: 115.742 fold; Fold Enrichment relative to AAV9, Heart (NHP) [1, 10]: 0.000 fold; Fold Enrichment relative to AAV9, Liver DNA (NHP) [1, 11]: 0.513 fold; Fold Enrichment relative to AAV9, Liver RNA (NHP) [1, 12]: 0.000 fold; Fold Enrichment relative to AAV9, Muscle (NHP) [1, 13]: 0.235 fold
KTINGQDSPHKSGQHQQA	5.582	85.657	1.127	0.579	0.557	0.193	0.000	–
KTINGQDSPHKSGQNQDT	9.626	82.075	0.000	0.067	0.144	0.225	0.000	–
KTINGRGSPHKRGQNQQT	13.988	120.889	0.100	0.814	0.614	0.458	0.434	–
KTINGSASPHSKAHSQQT	–	–	–	–	–	–	–	Fold Enrichment relative to AAV9, Brain (Mouse) (brain; mouse brain): 66.252 fold; Fold Enrichment relative to AAV9, Brain (NHP) [1, 14]: 55.293 fold; Fold Enrichment relative to AAV9, DRG (NHP) ([1]; NHP DRG): 0.000 fold; Fold Enrichment relative to AAV9, Heart (NHP) ([1]; NHP heart): 0.000 fold; Fold Enrichment relative to AAV9, Liver DNA (NHP) ([1]; NHP liver, DNA): 0.166 fold; Fold Enrichment relative to AAV9, Liver RNA (NHP) ([1]; NHP liver, RNA): 0.000 fold; Fold Enrichment relative to AAV9, Muscle (NHP) ([1]; NHP muscle): 0.000 fold
KTINGSGSPHAKAQNHQT	–	–	–	–	–	–	–	Fold Enrichment relative to AAV9, Brain (Mouse) (brain; mouse brain): 80.603 fold; Fold Enrichment relative to AAV9, Brain (NHP) [1, 14]: 50.667 fold; Fold Enrichment relative to AAV9, DRG (NHP) ([1]; NHP DRG): 0.211 fold; Fold Enrichment relative to AAV9, Heart (NHP) ([1]; NHP heart): 0.140 fold; Fold Enrichment relative to AAV9, Liver DNA (NHP) ([1]; NHP liver, DNA): 0.090 fold; Fold Enrichment relative to AAV9, Liver RNA (NHP) ([1]; NHP liver, RNA): 0.101 fold; Fold Enrichment relative to AAV9, Muscle (NHP) ([1]; NHP muscle): 0.051 fold
KTINGSGSPHGWVQNQQT	290.720	97.122	0.000	0.000	1.975	1.240	0.000	Fold Enrichment relative to AAV9, Brain (Mouse) (brain; [7]): 290.720 fold; Fold Enrichment relative to AAV9, DRG (NHP) [1, 8]: 0.000 fold; Fold Enrichment relative to AAV9, Brain (NHP) [1, 9]: 97.122 fold; Fold Enrichment relative to AAV9, Heart (NHP) [1, 10]: 0.000 fold; Fold Enrichment relative to AAV9, Liver DNA (NHP) [1, 11]: 1.975 fold; Fold Enrichment relative to AAV9, Liver RNA (NHP) [1, 12]: 1.240 fold; Fold Enrichment relative to AAV9, Muscle (NHP) [1, 13]: 0.000 fold
KTINGSGSPHSKAGDSQT	–	–	–	–	–	–	–	Fold Enrichment relative to AAV9, Brain (Mouse) (brain; mouse brain): 74.355 fold; Fold Enrichment relative to AAV9, Brain (NHP) [1, 14]: 50.457 fold; Fold Enrichment relative to AAV9, DRG (NHP) ([1]; NHP DRG): 0.614 fold; Fold Enrichment relative to AAV9, Heart (NHP) ([1]; NHP heart): 0.236 fold; Fold Enrichment relative to AAV9, Liver DNA (NHP) ([1]; NHP liver, DNA): 0.071 fold; Fold Enrichment relative to AAV9, Liver RNA (NHP) ([1]; NHP liver, RNA): 1.062 fold; Fold Enrichment relative to AAV9, Muscle (NHP) ([1]; NHP muscle): 0.008 fold
KTINGSGSPHSKAHNQQR	–	–	–	–	–	–	–	Fold Enrichment relative to AAV9, Brain (Mouse) (brain; [7]): 107.301 fold; Fold Enrichment relative to AAV9, DRG (NHP) [1, 8]: 0.562 fold; Fold Enrichment relative to AAV9, Brain (NHP) [1, 9]: 74.272 fold; Fold Enrichment relative to AAV9, Heart (NHP) [1, 10]: 0.486 fold; Fold Enrichment relative to AAV9, Liver DNA (NHP) [1, 11]: 0.057 fold; Fold Enrichment relative to AAV9, Liver RNA (NHP) [1, 12]: 0.956 fold; Fold Enrichment relative to AAV9, Muscle (NHP) [1, 13]: 0.047 fold
